Data from patent publication US20140120087A1, “TRIAZOLOPYRIDINES” (BAYER INTELLECTUAL PROPERTY GMBH, priority 2011, published 2014).

Columns and labels:
Mps-1 kinase [1] = target: T1, Mps-1 kinase (Homo sapiens, UniProt P33981); assay: Mps-1 kinase assay with 10 μM ATP (TR-FRET)
T1 sequence (P33981 1-857): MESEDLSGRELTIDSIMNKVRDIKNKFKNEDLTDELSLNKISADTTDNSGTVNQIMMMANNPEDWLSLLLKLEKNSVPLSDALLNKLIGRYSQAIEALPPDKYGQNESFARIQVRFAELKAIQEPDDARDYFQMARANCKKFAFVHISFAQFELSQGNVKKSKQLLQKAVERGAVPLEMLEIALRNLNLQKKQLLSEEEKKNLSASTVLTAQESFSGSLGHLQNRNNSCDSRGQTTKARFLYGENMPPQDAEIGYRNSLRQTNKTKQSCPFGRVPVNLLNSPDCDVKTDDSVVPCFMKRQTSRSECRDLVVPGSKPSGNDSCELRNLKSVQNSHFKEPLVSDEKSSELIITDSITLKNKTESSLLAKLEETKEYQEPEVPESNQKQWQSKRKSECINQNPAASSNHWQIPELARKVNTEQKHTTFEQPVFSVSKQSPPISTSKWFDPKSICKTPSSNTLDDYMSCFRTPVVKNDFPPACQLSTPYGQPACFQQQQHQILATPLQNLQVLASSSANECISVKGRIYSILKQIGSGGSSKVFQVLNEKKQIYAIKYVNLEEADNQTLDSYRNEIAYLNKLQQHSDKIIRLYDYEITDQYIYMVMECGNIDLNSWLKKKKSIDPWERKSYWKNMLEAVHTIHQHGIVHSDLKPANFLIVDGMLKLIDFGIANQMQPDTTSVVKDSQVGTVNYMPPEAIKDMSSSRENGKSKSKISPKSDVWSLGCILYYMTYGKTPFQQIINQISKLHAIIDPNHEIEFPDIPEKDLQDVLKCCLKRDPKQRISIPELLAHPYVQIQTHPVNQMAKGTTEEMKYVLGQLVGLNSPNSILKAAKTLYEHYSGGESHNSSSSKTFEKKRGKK

[2] = Hydrolytic stability assay at pH 2; type: physicochemical; conditions: buffer pH 2, 37° C., compounds of the invention
Protocol: The hydrolytic stability assay investigates the stability of a compound in an aqueous buffer system. Standard solution stability assay is run in 0.05 M Phosphate buffer at pH 7.4 (pH of blood plasma) at 37° C. As compounds in the GI tract are exposed to a wide variety of pHs any relevant pH (as pH 2 to simulate the acidic condition of the GI tract in the following experiment) can be chosen. Compounds are incubated in relevant solution at 37° C. and analyzed by HPLC immediately after incubation and after 1, 2 and 24 hrs. Degradation rate (decay in %) is calculated by relating peak areas after 1, 2 and 24 hrs to the time zero injection.
Compound is available as 10 mM in DMSO (solution 1). 2.5 μL of solution 1 is dissolved in 1 mL acetonitrile leading to solution 2. Poorly soluble compounds may demand another dilution step of solution 2 (1:5 and 1:10 respectively) in Acetonitrile). Solution 2 is incubated at 37° C. in a tempered HPLC autosampler. 1 mL buffer pH 2 is transferred into an HPLC vial. 100 μL of solution 2 is added to the buffer pH 2 solution and mixed thoroughly. Immediately after mixing the combined solution is injected into the HPLC to give the time zero injection. Injections are repeated after 1, 2 and 24 hrs.
The degradation rate (decay in %) is calculated using HPLC software Millennium and Excel respectively.

Mps-1 kinase [3] = target: T1, Mps-1 kinase; assay: Mps-1 kinase assay with 2 mM ATP (TR-FRET)

Compound | IC50 (Mps-1 kinase [1]) [nM] | Hydrolysis at pH 2; Decay in % after 24 h [2] [%] | IC50 (Mps-1 kinase [3]) [nM]
COc1cc(C(=O)NCC(C)(C)O)ccc1Nc1nc2ccc(-c3ccc(NC(=O)Cc4ccc(F)cc4)cc3)cn2n1 [Example 01.12, 4-{[6-(4-{[(4-fluorophenyl)acetyl]amino}phenyl)[1,2,4]triazolo[1,5-α]-pyridin-2-yl]amino}-N-(2-hydroxy-2-methylpropyl)-3-methoxybenzamide] | ≤ 1 | <10 | ≤ 1
COc1cc(C(=O)NC(C)(C)CO)ccc1Nc1nc2ccc(-c3ccc(NC(=O)Cc4ccc(F)cc4)cc3)cn2n1 [Example 01.13, 4-{[6-(4-{[(4-fluorophenyl)acetyl]amino}phenyl)[1,2,4]triazolo[1,5-α]-pyridin-2-yl]amino}-N-(1-hydroxy-2-methylpropan-2-yl)-3-methoxy-benzamide] | ≤ 1 | <10 | ≤ 1
COc1cc(C(=O)N(C)CCN(C)C(C)=O)ccc1Nc1nc2ccc(-c3ccc(NC(=O)Cc4ccc(F)cc4)cc3)cn2n1 [Example 01.14, N-{2-[acetyl(methyl)amino]ethyl}-4-{[6-(4-{[(4-fluorophenyl)acetyl]amino}-phenyl)[1,2,4]triazolo[1,5-α]pyridin-2-yl]amino}-3-methoxy-N-methylbenzamide] | ≤ 1 | <10 | ≤ 1
CCNC(=O)c1ccc(Nc2nc3ccc(-c4ccc(NC(=O)Cc5ccc(F)cc5)cc4)cn3n2)c(OCC)c1 [Example 01.16, 3-ethoxy-N-ethyl-4-{[6-(4-{[(4-fluorophenyl)acetyl]amino}phenyl)[1,2,4]-triazolo[1,5-α]pyridin-2-yl]amino}benzamide] | ≤ 1 | <10 | ≤ 1
CCOc1cc(C(=O)NCC(C)(C)O)ccc1Nc1nc2ccc(-c3ccc(NC(=O)Cc4ccc(F)cc4)cc3)cn2n1 [Example 01.17, 3-ethoxy-4-{[6-(4-{[(4-fluorophenyl)acetyl]amino}phenyl)[1,2,4]triazolo-[1,5-α]pyridin-2-yl]amino}-N-(2-hydroxy-2-methylpropyl)benzamide] | ≤ 1 | <10 | ≤ 1
CCOc1cc(C(=O)N(CC)CCOC)ccc1Nc1nc2ccc(-c3ccc(NC(=O)Cc4ccc(F)cc4)cc3)cn2n1 [Example 01.18, 3-ethoxy-N-ethyl-4-{[6-(4-{[(4-fluorophenyl)acetyl]amino}phenyl)[1,2,4]-triazolo[1,5-α]pyridin-2-yl]amino}-N-(2-methoxyethyl)benzamide] | ≤ 1 | <10 | ≤ 1
CCOc1cc(C(=O)N(C)CCO)ccc1Nc1nc2ccc(-c3ccc(NC(=O)Cc4ccc(F)cc4)cc3)cn2n1 [Example 01.19, 3-ethoxy-4-{[6-(4-{[(4-fluorophenyl)acetyl]amino}phenyl)[1,2,4]triazolo-[1,5-α]pyridin-2-yl]amino}-N-(2-hydroxyethyl)-N-methylbenzamide] | ≤ 1 | <10 | ≤ 1
CNCCN(C)C(=O)c1ccc(Nc2nc3ccc(-c4ccc(NC(=O)Cc5ccc(F)cc5)cc4)cn3n2)c(OC)c1 [Example 01.20, 4-{[6-(4-{[(4-fluorophenyl)acetyl]amino}phenyl)[1,2,4]triazolo[1,5-α]-pyridin-2-yl]amino}-3-methoxy-N-methyl-N-[2-(methylamino)ethyl]-benzamide] | ≤ 1 | <10 | ≤ 1
CC(C)(C)NC(=O)c1ccc(Nc2nc3ccc(-c4ccc(NC(=O)Cc5ccc(F)cc5)cc4)cn3n2)c(OCC(F)(F)F)c1 [Example 01.21, N-tert-butyl-4-{[6-(4-{[(4-fluorophenyl)acetyl]amino}phenyl)[1,2,4]-triazolo[1,5-α]pyridin-2-yl]amino}-3-(2,2,2-trifluoroethoxy)benzamide] | ≤ 1 | <10 | ≤ 1
CCN(CC)C(=O)c1ccc(Nc2nc3ccc(-c4ccc(NC(=O)Cc5ccc(F)cc5)cc4)cn3n2)c(OCC(F)(F)F)c1 [Example 01.22, N,N-diethyl-4-{[6-(4-{[(4-fluorophenyl)acetyl]amino}phenyl)[1,2,4]triazolo-[1,5-α]pyridin-2-yl]amino}-3-(2,2,2-trifluoroethoxy)benzamide] | ≤ 1 | <10 | ≤ 1
CCCOc1cc(C(=O)N(CC)CC)ccc1Nc1nc2ccc(-c3ccc(NC(=O)Cc4ccc(F)cc4)cc3)cn2n1 [Example 01.23, N,N-diethyl-4-{[6-(4-{[(4-fluorophenyl)acetyl]amino}phenyl)[1,2,4]triazolo-[1,5-α]pyridin-2-yl]amino}-3-propoxybenzamide] | ≤ 1 | <10 | 1.1
CCN(CC)C(=O)c1ccc(Nc2nc3ccc(-c4ccc(NC(=O)Cc5ccc(F)cc5)cc4)cn3n2)c(OCC2CC2)c1 [Example 01.24, 3-(cyclopropylmethoxy)-N,N-diethyl-4-{[6-(4-{[(4-fluorophenyl)acetyl]-amino}phenyl)[1,2,4]triazolo[1,5-α]pyridin-2-yl]amino}benzamide] | ≤ 1 | <10 | 1.2
CCN(CC)C(=O)c1ccc(Nc2nc3ccc(-c4ccc(NC(=O)Cc5ccc(F)cc5)cc4)cn3n2)c(OC(C)C)c1 [Example 01.25, N,N-diethyl-4-{[6-(4-{[(4-fluorophenyl)acetyl]amino}phenyl)[1,2,4]triazolo-[1,5-α]pyridin-2-yl]amino}-3-isopropoxybenzamide] | ≤ 1 | <10 | 1.3
CCN(CC)C(=O)c1ccc(Nc2nc3ccc(-c4ccc(NC(=O)Cc5ccc(F)cc5)cc4)cn3n2)c(OCCOC)c1 [Example 01.26, N,N-diethyl-4-{[6-(4-{[(4-fluorophenyl)acetyl]amino}phenyl)[1,2,4]triazolo-[1,5-α]pyridin-2-yl]amino}-3-(2-methoxyethoxy)benzamide] | ≤ 1 | <10 | 21
O=C(Cc1ccc(F)cc1)Nc1ccc(-c2ccc3nc(Nc4ccc(C(=O)NCC(F)(F)F)cc4OCC(F)(F)F)nn3c2)cc1 [Example 01.27, 4-{[6-(4-{[(4-fluorophenyl)acetyl]amino}phenyl)[1,2,4]triazolo[1,5-α]-pyridin-2-yl]amino}-3-(2,2,2-trifluoroethoxy)-N-(2,2,2-trifluoroethyl)-benzamide] | ≤ 1 | <10 | ≤ 1
CCOc1cc(C(=O)NCCS(C)(=O)=O)ccc1Nc1nc2ccc(-c3ccc(NC(=O)Cc4ccc(F)cc4)cc3)cn2n1 [Example 01.28, 3-ethoxy-4-{[6-(4-{[(4-fluorophenyl)acetyl]amino}phenyl)[1,2,4]triazolo-[1,5-α]pyridin-2-yl]amino}-N-[2-(methylsulfonyl)ethyl]benzamide] | ≤ 1 | <10 | ≤ 1
CC(C)(O)CNC(=O)c1ccc(Nc2nc3ccc(-c4ccc(NC(=O)Cc5ccc(F)cc5)cc4)cn3n2)c(OCC(F)(F)F)c1 [Example 01.29, 4-{[6-(4-{[(4-fluorophenyl)acetyl]amino}phenyl)[1,2,4]triazolo[1,5-α]-pyridin-2-yl]amino}-N-(2-hydroxy-2-methylpropyl)-3-(2,2,2-trifluoro-ethoxy)benzamide] | ≤ 1 | <10 | ≤ 1
COc1cc(C(=O)NCCO)ccc1Nc1nc2ccc(-c3ccc(C(=O)NCc4ccc(F)cc4)cc3)cn2n1 [Example 02.1, 4-[(6-{4-[(4-fluorobenzyl)carbamoyl]phenyl}[1,2,4]triazolo[1,5-α]pyridin-2-yl)amino]-N-(2-hydroxyethyl)-3-methoxybenzamide] | ≤ 1 | <10 | 1.1
